Measured values published in PubChem BioAssay AID1259407 (Chemical Carcinogenesis Research Information System (CCRIS), 2018).
Activity calls are given as the source filed them. The rule behind the calls is not given here.

Test system: CCRIS mutagenicity, Ames/micronucleus/aberration tests
Experiment: CCRIS mutagenicity studies
[1] = Test System: AMES SALMONELLA TYPHIMURIUM, Strain/Indicator: TA100, Metabolic Activation: NONE, Method: STANDARD PLATE

CCCCCN(CCCOC)C(=O)C(CCC(=O)O)NC(=O)c1ccc(Cl)c(Cl)c1 (stereo not given)
mutagenic call (Test System: AMES SALMONELLA TYPHIMURIUM, Strain/Indicator: TA98, Metabolic Activation: NONE, Method: PREINCUBATION): inactive; negative
mutagenic call (Test System: AMES SALMONELLA TYPHIMURIUM, Strain/Indicator: TA98, Metabolic Activation: RAT LIVER S-9, PHENOBARBITAL AND 5,6-BENZOFLAVONE, Method: PREINCUBATION): inactive; negative
mutagenic call (Test System: AMES SALMONELLA TYPHIMURIUM, Strain/Indicator: TA100, Metabolic Activation: NONE, Method: PREINCUBATION): inactive; negative
mutagenic call (Test System: AMES SALMONELLA TYPHIMURIUM, Strain/Indicator: TA100, Metabolic Activation: RAT LIVER S-9, PHENOBARBITAL AND 5,6-BENZOFLAVONE, Method: PREINCUBATION): inactive; negative
mutagenic call (Test System: AMES SALMONELLA TYPHIMURIUM, Strain/Indicator: TA1535, Metabolic Activation: NONE, Method: PREINCUBATION): inactive; negative
mutagenic call (Test System: AMES SALMONELLA TYPHIMURIUM, Strain/Indicator: TA1535, Metabolic Activation: RAT LIVER S-9, PHENOBARBITAL AND 5,6-BENZOFLAVONE, Method: PREINCUBATION): inactive; negative
mutagenic call (Test System: AMES SALMONELLA TYPHIMURIUM, Strain/Indicator: TA1537, Metabolic Activation: NONE, Method: PREINCUBATION): inactive; negative
mutagenic call (Test System: AMES SALMONELLA TYPHIMURIUM, Strain/Indicator: TA1537, Metabolic Activation: RAT LIVER S-9, PHENOBARBITAL AND 5,6-BENZOFLAVONE, Method: PREINCUBATION): inactive; negative
mutagenic call (Test System: E.COLI, Strain/Indicator: WP2 UVRA, Metabolic Activation: NONE, Method: PREINCUBATION): inactive; negative
mutagenic call (Test System: E.COLI, Strain/Indicator: WP2 UVRA, Metabolic Activation: RAT LIVER S-9, PHENOBARBITAL AND 5,6-BENZOFLAVONE, Method: PREINCUBATION): inactive; negative

CCCCOc1cc2c(c3ccc4ccccc4c13)CCC2=O
mutagenic call (Test System: AMES SALMONELLA TYPHIMURIUM, Strain/Indicator: TA100, Metabolic Activation: RAT, LIVER, S-9, AROCLOR 1254, Method: STANDARD PLATE): inactive; negative

CC(=O)Nc1ccc2[nH]c3ccccc3c2c1[N+](=O)[O-]
mutagenic call (Test System: AMES SALMONELLA TYPHIMURIUM, Strain/Indicator: TA98, Metabolic Activation: NONE, Method: STANDARD PLATE): active; positive
mutagenic call (Test System: AMES SALMONELLA TYPHIMURIUM, Strain/Indicator: TA98, Metabolic Activation: RAT, LIVER, S-9, PHENOBARBITAL, Method: STANDARD PLATE): active; positive
mutagenic call [1]: inactive; negative
mutagenic call (Test System: AMES SALMONELLA TYPHIMURIUM, Strain/Indicator: TA100, Metabolic Activation: RAT, LIVER, S-9, PHENOBARBITAL, Method: STANDARD PLATE): inactive; negative
mutagenic call (Test System: AMES SALMONELLA TYPHIMURIUM, Strain/Indicator: TA1537, Metabolic Activation: NONE, Method: STANDARD PLATE): inactive; negative
mutagenic call (Test System: AMES SALMONELLA TYPHIMURIUM, Strain/Indicator: TA1537, Metabolic Activation: RAT, LIVER, S-9, PHENOBARBITAL, Method: STANDARD PLATE): inactive; negative
mutagenic call (Test System: AMES SALMONELLA TYPHIMURIUM, Strain/Indicator: TA1538, Metabolic Activation: NONE, Method: STANDARD PLATE): active; positive
mutagenic call (Test System: AMES SALMONELLA TYPHIMURIUM, Strain/Indicator: TA1538, Metabolic Activation: RAT, LIVER, S-9, PHENOBARBITAL, Method: STANDARD PLATE): active; positive
mutagenic call (Test System: AMES SALMONELLA TYPHIMURIUM, Strain/Indicator: TA1977, Metabolic Activation: NONE, Method: STANDARD PLATE): inactive; negative
mutagenic call (Test System: AMES SALMONELLA TYPHIMURIUM, Strain/Indicator: TA1977, Metabolic Activation: RAT, LIVER, S-9, PHENOBARBITAL, Method: STANDARD PLATE): inactive; negative

CN=c1ccc2nc3ccc(N)cc3sc-2c1
mutagenic call (Test System: Ames Salmonella typhimurium, Strain/Indicator: TA98, Metabolic Activation: None, Method: Preincubation): active; positive
mutagenic call (Test System: Ames Salmonella typhimurium, Strain/Indicator: TA98, Metabolic Activation: Rat, Liver, S-9, Aroclor 1254 (10%), Method: Preincubation): active; positive
mutagenic call (Test System: Ames Salmonella typhimurium, Strain/Indicator: TA100, Metabolic Activation: None, Method: Preincubation): active; positive
mutagenic call (Test System: Ames Salmonella typhimurium, Strain/Indicator: TA100, Metabolic Activation: Rat, Liver, S-9, Aroclor 1254 (10%), Method: Preincubation): active; positive
mutagenic call (Test System: E. coli, Strain/Indicator: WPM uvrA/pKM101, Metabolic Activation: None, Method: Preincubation): active; positive
mutagenic call (Test System: E. coli, Strain/Indicator: WPM uvrA/pKM101, Metabolic Activation: Rat, Liver, S-9, Aroclor 1254 (10%), Method: Preincubation): active; positive

C=CCS(=O)(=O)CC=C
mutagenic call (End Point: In vivo micronucleus, Test System: Peripheral blood reticulocytes, Species: Mouse, Strain/Sex: F1 (Big Blue x A/J) transgenic/Male and female, Route: Oral): inactive; negative

O=CN(O)c1ccc(Oc2c(Cl)cc(Cl)cc2Cl)cc1
mutagenic call [1]: inactive; negative
mutagenic call (Test System: AMES SALMONELLA TYPHIMURIUM, Strain/Indicator: TA100, Metabolic Activation: RAT, LIVER, S-9, KANECLOR 500, Method: STANDARD PLATE): active; positive
